The results in this text go back to patent US20080255155A1, “KINASE INHIBITORS AND USES THEREOF” (priority 2006, published 2008).

For test [1], the target named is T1, recombinant human c-Met/HGF receptor (Homo sapiens, UniProt P08581).
T1 construct: His tag; made in house; host or cells: Hi-5 cells (Trichoplusia ni), recombinant baculovirus
Briefly: In vitro receptor tyrosine kinase assay, c-Met (DELFIA). The test is classed as biochemical. The note with it: ATP 10 uM, enzyme 25 nM; read-out: Potency in enzyme assays Cmet. An excerpt: (§1) These tests measure the ability of compounds to inhibit the enzymatic activity of recombinant human c-Met/HGF receptor and VEGF receptor enzymatic activity.
A 1.3-kb cDNA corresponding to the intracellular domain of c-Met or c-Met IC (Genbank accession number NP000236-1 amino acid […]) is cloned into the BamHI/XhoI sites of the pBlueBacHis2A vector (Invitrogen) for the production of a histidine-tagged version of that enzyme. This construct is used to generate recombinant baculovirus using the Bac-N-Blue™ system according to the manufacturer's instructions (Invitrogen).
The c-Met IC protein is expressed in Hi-5 cells (Trichoplusia Ni) upon infection with recombinant baculovirus construct. Briefly, Hi-5 cells grown in suspension and maintained in serum-free medium (Sf900 II supplemented with gentamycin) at a cell density of about 2×10^6 cells/ml are infected with the above-mentioned viruses at a multiplicity of infection (MOI) of 0.2 during 72 hours at 27° C. with agitation at 120 rpm on a rotary shaker. Infected cells are harvested by centrifugation at 398 g for 15 min. Cell pellets are frozen at −80° C. until purification is performed.
All steps described in cell extraction and purification are performed at 4° C. Frozen Hi-5 cell pellets infected with the C-Met IC recombinant baculovirus are thawed and gently resuspended in Buffer A (20 mM Tris pH 8.0, 10% glycerol, 1 μg/ml pepstatin, 2 μg/ml Aprotinin and leupeptin, 50 μg/ml PMSF, 50 μg/ml TLCK and 10 μM E64, 0.5 mM DTT and 1 mM Levamisole) using 3 ml of buffer per gram of cells. The suspension is Dounce homogenized after which it is centrifuged at 22500 g, 30 min., 4° C. The supernatant (cell extract) is used as starting material for purification of c-Met IC.
The supernatant is loaded onto a QsepharoseFF column (Amersham Biosciences) equilibrated with Buffer B (20 mM Tris pH 8.0, 10% glycerol) supplemented with 0.05M NaCl. Following a ten column volume (CV) wash with equilibration buffer, bound proteins are eluted with a 5 CV salt linear gradient spanning from 0.05 to 1M NaCl in Buffer B. Typically, the conductivity of selected fractions rank between 6.5 and 37 mS/cm. This Qsepharose eluate has an estimated NaCl concentration of 0.33M and is supplemented with a 5M NaCl solution in order to increase NaCl concentration at 0.5M and also with a 5M Imidazole (pH 8.0) solution to achieve a final imidazole concentration of 15 mM. This material is loaded onto a HisTrap affinity column (GE Healthcare) equilibrated with Buffer C (50 mM NaPO4 pH 8.0, 0.5M NaCl, 10% glycerol) supplemented with 15 mM imidazole. After a 10 CV wash with equilibration buffer and an 8 CV wash with buffer C+40 mM imidazole, bound proteins are eluted with an 8 CV linear gradient (15 to 500 mM) of imidazole in buffer C. C-Met IC enriched fractions from this chromatography step are pooled based on SDS-PAGE analysis. This pool of enzyme undergoes buffer exchange using PD-10 column (GE Healthcare) against buffer D (25 mM HEPES pH 7.5, 0.1M NaCl, 10% glycerol and 2 mM β-mercaptoethanol). Final C-Met IC protein preparations concentrations are about 0.5 mg/ml with purity approximating 80%. Purified c-Met IC protein stocks are supplemented with BSA at 1 mg/ml, aliquoted and frozen at −80° C. prior to use in enzymatic assay.
Inhibition of c-Met/HGF receptor and VEGFR/KDR is measured in a DELFIA™ assay (Perkin Elmer). The substrate poly(Glu4,Tyr) is immobilized onto black high-binding polystyrene 96-well plates. The coated plates are washed and stored at 4° C. During the assay, enzymes are pre-incubated with inhibitor and Mg-ATP on ice in polypropylene 96-well plates for 4 minutes, and then transferred to the coated plates. The subsequent kinase reaction takes place at 30° C. for 10-30 minutes. ATP concentrations in the assay are 10 uM for C-Met (5× the Km) and 0.6 uM for VEGFR/KDR (2× the Km). Enzyme concentration is 25 nM (C-Met) or 5 nM (VEGFR/KDR). […]

In test [2] the target is T2, VEGF receptor KDR (Homo sapiens, UniProt P35968).
T2 construct: made in house; host or cells: Sf9 cells (Spodoptera frugiperda), recombinant baculovirus
Briefly: In vitro receptor tyrosine kinase assay, VEGF receptor KDR (DELFIA). The class given is biochemical. Conditions: ATP 0.6 uM, enzyme 5 nM; read-out: Potency in enzyme assays VEGF.
Excerpt: as §1
In the case of VEGF receptor KDR a 1.6-kb cDNA corresponding to the catalytic domain of VEGFR2 or KDR (Genbank accession number AF035121 amino acid 806 to 1356) is cloned into the Pst I site of the pDEST20 Gateway vector (Invitrogen) for the production of a GST-tagged version of that enzyme. This construct is used to generate recombinant baculovirus using the Bac-to-Bac system according to the manufacturer's instructions (Invitrogen).
The GST-VEGFR2806-1356 protein is expressed in Sf9 cells (Spodoptera frugiperda) upon infection with recombinant baculovirus construct. Briefly, Sf9 cells grown in suspension and maintained in serum-free medium (Sf900 II supplemented with gentamycin) at a cell density of about 2×10^6 cells/ml are infected with the above-mentioned viruses at a multiplicity of infection (MOI) of 0.1 during 72 hours at 27° C. with agitation at 120 rpm on a rotary shaker. Infected cells are harvested by centrifugation at 398 g for 15 min. Cell pellets are frozen at −80° C. until purification is performed.
All steps described in cell extraction and purification are performed at 4° C. Frozen Sf9 cell pellets infected with the GST-VEGFR2806-1356 recombinant baculovirus re thawed and gently resuspended in Buffer A (PBS pH 7.3 supplemented with 1 μg/ml pepstatin, 2 μg/ml Aprotinin and leupeptin, 50 μg/ml PMSF, 50 μg/ml TLCK and 10 μM E64 and 0.5 mM DTT) using 3 ml of buffer per gram of cells. Suspension is Dounce homogenized and 1% Triton X-100 is added to the homogenate after which it is centrifuged at 22500 g, 30 min., 4° C. The supernatant (cell extract) is used as starting material for purification of GST-VEGFR2806-1356.
The supernatant is loaded onto a GST-agarose column (Sigma) equilibrated with PBS pH 7.3. Following a four column volume (CV) wash with PBS pH 7.3+1% Triton X-100 and 4 CV wash with buffer B (50 mM Tris pH 8.0, 20% glycerol and 100 mM NaCl), bound proteins are step eluted with 5 CV of buffer B supplemented with 5 mM DTT and 15 mM glutathion. GST-VEGFR2806-1356 enriched fractions from this chromatography step are pooled based on U.V. trace i.e. fractions with high O.D^-280- Final GST-VEGFR2806-1356 protein preparations concentrations are about 0.7 mg/ml with purity approximating 70%. Purified GST-VEGFR2806-1356 protein stocks are aliquoted and frozen at −80° C. prior to use in enzymatic assay.
Inhibition of c-Met/HGF receptor and VEGFR/KDR is measured in a DELFIA™ assay (Perkin Elmer). The substrate poly(Glu4,Tyr) is immobilized onto black high-binding polystyrene 96-well plates. The coated plates are washed and stored at 4° C. During the assay, enzymes are pre-incubated with inhibitor and Mg-ATP on ice in polypropylene 96-well plates for 4 minutes, and then transferred to the coated plates. The subsequent kinase reaction takes place at 30° C. for 10-30 minutes. ATP concentrations in the assay are 10 uM for C-Met (5× the Km) and 0.6 uM for VEGFR/KDR (2× the Km). Enzyme concentration is 25 nM (C-Met) or 5 nM (VEGFR/KDR). After incubation, the kinase reactions are quenched with EDTA and the plates are washed. Phosphorylated product is detected by incubation with Europium-labeled anti-phosphotyrosine MoAb. After washing the plates, bound MoAb is detected by time-resolved fluorescence in a Gemini SpectraMax reader (Molecular Devices). Compounds are evaluated over a range of concentrations and IC50's (concentration of compounds giving 50% inhibition of enzymatic activity) are determined.

For test [3], the system named is A549. Briefly: A549 wound healing inhibition. The note with it: Homo sapiens; A549 cells; read-out: Potency in cell-based assays A549 wound healing inhibition.
Test [4] deals with DU145. Briefly: DU145 scattering inhibition. Conditions: Homo sapiens, DU-145; DU145 cells; read-out: Potency in cell-based assays DU145 scattering inhibition.

T1 sequence (P08581 1078-1337): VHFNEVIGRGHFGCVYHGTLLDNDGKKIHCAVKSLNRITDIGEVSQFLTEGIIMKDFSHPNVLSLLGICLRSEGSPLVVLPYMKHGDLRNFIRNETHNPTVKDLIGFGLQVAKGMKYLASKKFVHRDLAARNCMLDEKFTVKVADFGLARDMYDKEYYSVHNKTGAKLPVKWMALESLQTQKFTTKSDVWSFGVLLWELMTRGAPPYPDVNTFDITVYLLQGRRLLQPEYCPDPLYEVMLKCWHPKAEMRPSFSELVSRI
T2 sequence (P35968 806-1356): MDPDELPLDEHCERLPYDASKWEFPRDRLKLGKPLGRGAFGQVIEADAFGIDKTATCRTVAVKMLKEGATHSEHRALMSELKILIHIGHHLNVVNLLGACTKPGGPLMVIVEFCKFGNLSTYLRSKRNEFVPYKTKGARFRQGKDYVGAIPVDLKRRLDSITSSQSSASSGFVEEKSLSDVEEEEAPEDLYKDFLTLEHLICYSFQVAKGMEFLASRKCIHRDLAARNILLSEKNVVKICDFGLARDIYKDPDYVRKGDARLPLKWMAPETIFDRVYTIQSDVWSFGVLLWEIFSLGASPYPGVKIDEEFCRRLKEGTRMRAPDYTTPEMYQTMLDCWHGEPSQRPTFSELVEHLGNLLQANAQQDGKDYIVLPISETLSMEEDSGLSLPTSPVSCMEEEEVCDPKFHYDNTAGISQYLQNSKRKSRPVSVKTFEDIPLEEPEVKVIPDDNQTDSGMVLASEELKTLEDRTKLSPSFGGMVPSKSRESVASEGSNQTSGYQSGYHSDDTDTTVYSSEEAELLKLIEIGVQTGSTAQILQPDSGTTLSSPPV

As to `O=C(Nc1cc(Oc2ccc(NC(=O)N3CCN(c4ccc(F)cc4)C3=O)cc2F)ccn1)N1CCCC1` [Compound 18b, N-(3-fluoro-4-(2-(pyrrolidine-1-carboxamido)pyridin-4-yloxy)phenyl)-3-(4-fluorophenyl)-2-oxoimidazolidine-1-carboxamide], the IC50 in test [1] was below 250 nM; in test [2], below 250 nM; in test [3], at least 1000 nM; in test [4], at least 1000 nM.

With `CN(C)[C@@H]1CCN(C(=O)Nc2cc(Oc3ccc(NC(=O)N4CCN(c5ccccc5)C4=O)cc3F)ccn2)C1` [Compound 18e, (R)-N-(4-(2-(3-(dimethylamino)pyrrolidine-1-carboxamido)pyridin-4-yloxy)-3-fluorophenyl)-2-oxo-3-phenylimidazolidine-1-carboxamide], the IC50 in test [1] was below 250 nM; in test [2], 250 to 500 nM; in test [3], at least 1000 nM; in test [4], at least 1000 nM.

Turning to `CN(C)CCOC(=O)Nc1cc(Oc2ccc(NC(=O)N3CCN(c4ccccc4)C3=O)cc2F)ccn1` [Compound 18d, 2-(dimethylamino)ethyl4-(2-fluoro-4-(2-oxo-3-phenylimidazolidine-1-carboxamido)phenoxy)pyridin-2-ylcarbamate], the IC50 in test [1] was 250 to 500 nM; in test [2], at least 1000 nM; in test [3], above 10000 nM; in test [4], above 10000 nM.

Turning to `CN(C)CCCNC(=O)Nc1cc(Oc2ccc(NC(=O)N3CCN(c4ccccc4)C3=O)cc2F)ccn1` [Compound 18c, N-(4-(2-(3-(3-(dimethylamino)propyl)ureido)pyridin-4-yloxy)-3-fluorophenyl)-2-oxo-3-phenylimidazolidine-1-carboxamide], the IC50 in test [1] was 500 to 1000 nM; in test [2], at least 1000 nM; in test [3] it was 1000 to 5000 nM; in test [4] it was at least 1000 nM.

With `CN(C)[C@H]1CCN(C(=O)Nc2cc(Oc3ccc(NC(=O)N4CCN(c5ccc(F)cc5)C4=O)cc3F)ccn2)C1` [Compound 18h, (S)-N-(4-(2-(3-(dimethylamino)pyrrolidine-1-carboxamido)pyridin-4-yloxy)-3-fluorophenyl)-3-(4-fluorophenyl)-2-oxoimidazolidine-1-carboxamide], the IC50 in test [1] is below 250 nM; in test [2] it was below 250 nM; in test [3] it was at least 1000 nM; in test [4], at least 1000 nM.
